These results are taken from US20170189465A1, “Anti Hallucination Drug” (Kracie Pharma, Ltd., priority 2014, published 2017).

Holding throughout (type): in vivo
One experiment concerns head-twitches of mice. The experiment can be described thus: Production of hallucination model mouse with DOI. As to conditions: 1 mg/kg intraperitoneally, counted for five minutes after five minutes. The protocol:
(§1) Four-week-old ICR male mice (17-19 g) were purchased from Japan SLC, Inc. and subjected to the experiment after an acclimatization period of a week. The animals were kept at a room temperature of 23±2° C. at a humidity of 55±10% in a 12-hour cycle of turning on the light at 8:00 and turning off the light at 20:00. The experimental animals were allowed to drink water and eat freely during the period of the experiment.
(§2) In a physiological saline solution, (+/−) 2,5-dimethoxy-4-iodoamphetamine (DOI: sigma Lot 0.012M4812V), which is a hallucinogen, was dissolved. Immediately after intraperitoneally injecting the solution to the mice at 1 mg/kg, the mice were moved to a breeding cage without a floor mat. After five minutes, the numbers of head-twitches of the mice (used as an indicator of a hallucinatory symptom) were counted for five minutes (Egashira et al., Repeated administration of Yokukansan inhibits DOI-induced head-twitch response and decreases expression of 5-hydroxytryptamine (5-HT) 2A receptors in the prefrontal cortex., Prog Neuropsychopharmacol Biol Psychiatry., 32, 1516-1520, 2008). In this regard, to exclude the influence of external noise or the like on the behavior of the mice, the head-twitches were counted in a soundproof chamber.

Experiment [1] concerns hallucinogen-induced head-twitching response in mice. Kind of experiment: DOI-induced head-twitching response in mice after single application (one oral administration). As to conditions: single oral application, 0.03, 0.15 and 0.75 mg/kg, DOI i.p. after one hour, FIG. 7. How it is done: as §2
Similar ICR male mice to those used in Test 1 were randomly divided into eight groups including a normal group, a control group and six test groups. A 0.5% CMC-Na solution was […], and the atractylodes rhizome extract at different doses ([…]) and the atractylodes lancea rhizome extract at different doses ([…]), which were each prepared using a 0.5% CMC-Na solution, […] […] Then, the head-twitches of the mice were counted in a similar manner as in Test 1. […] Here, when p<0.05, it was determined that the result attained statistical significance. […]

The test system is the same in experiment [2]. The experiment can be described thus: DOI-induced head-twitching response in mice after oral administration once a day for 14 days. The following applies: oral once a day for 14 days, DOI 1 mg/kg i.p. The protocol: as §1, §2
Similar ICR male mice to those used in Test 1 were randomly divided into eight groups including a normal group, a control group and six test groups. A 0.5% CMC-Na solution was orally administered to the normal group and the control group once a day for 14 days, and the atractylodes rhizome extract at different doses (20, 100 and 500 mg/kg) and the atractylodes lancea rhizome extract at different doses (20, 100 and 500 mg/kg), which were each prepared using a 0.5% CMC-Na solution, were orally administered to the six test groups once a day for 14 days. One hour after the completion of the final oral administration, 1 mg/kg of DOI was intraperitoneally injected to the mice of the control group and the test groups. Then, the head-twitches of the mice were counted in a similar manner as in Test 1. The results of the measurement were tested by the Dunnett's test using one-way analysis of variance for the comparison between multiple groups. Here, when p<0.05, it was determined that the result attained statistical significance.
The anti-hallucination actions of atractylenolide III and β-eudesmol were examined by the same method as that of Test 2 except for the points which are especially specified. In this test, atractylenolide III purified in Example 1 and commercial β-eudesmol (Lot. WEG2032, Wako Pure Chemical Industries, Ltd.) were dissolved in corn oil and used. The doses were set based on the average amounts of the compounds contained in the crude drugs and on the doses used in Test 2. Specifically, the doses of atractylenolide III were set at 0.03, 0.15 and 0.7 mg/kg, and the doses of β-eudesmol were set at 0.4, 2.0 and 10 mg/kg.
The anti-hallucination actions of atractylone and atractylenolide II were examined by the same method as that of Test 2 except for the points which are especially specified. In this test, atractylone and atractylenolide II purified in Example 1 were dissolved in corn oil and used. The doses of atractylone were set at 0.36, 1.8 and 9.0 mg/kg, and the doses of atractylenolide II were set at 0.03, 0.15 and 0.75 mg/kg.
The anti-hallucination action of atractylenolide I was examined by the same method as that of Test 2 except for the points which are especially specified. In this test, atractylenolide I purified in Example 1 was dissolved in corn oil and used. The doses of atractylenolide I were set at 0.03, 0.15 and 0.75 mg/kg.

On to `COc1cc(CC(C)N)c(OC)cc1I` (racemic) [DOI, (+/−) 2,5-dimethoxy-4-iodoamphetamine], for which the “numbers of head-twitches compared with normal mice” value in the experiment with head-twitches of mice is given as “higher”.

Take `C=C1CCC[C@]2(C)C[C@]3(O)OC(=O)C(C)=C3C[C@@H]12` [atractylenolide III]: the “number of head-twitches versus the control group” value in experiment [1] is recorded as “no significant difference”. The “number of head-twitches as compared to the control group” value (from here on “number … compared to the control group”) in experiment [2] (0.15 mg/kg in corn oil) and in experiment [2] (0.7 mg/kg in corn oil) was “decreased significantly” throughout.

In the case of `C=C1CCC[C@]2(C)C=C3OC(=O)C(C)=C3C[C@@H]12` [atractylenolide I], the “number … compared to the control group” value in experiment [2] (0.15 mg/kg in corn oil) and in experiment [2] (0.75 mg/kg in corn oil) was “decreased significantly” in each case.

Take `C=C1CCC[C@]2(C)Cc3occ(C)c3C[C@@H]12` [atractylone]: in experiment [2] (9.0 mg/kg in corn oil), the “number … compared to the control group” value is on record as “decreased significantly”.

Turning to `C=C1CCC[C@]2(C)CC[C@@H](C(C)(C)O)C[C@@H]12` [β-eudesmol], in experiment [2] (10 mg/kg in corn oil), the “number … compared to the control group” value is given as “decreased significantly”.

Turning to atractylenolide II, the “number … compared to the control group” value in experiment [2] (0.75 mg/kg in corn oil) was “decreased significantly”.
